According to patent US20200108074A1, “COMBINATIONS OF CHK1- AND WEE1- INHIBITORS” (Seattle Genetics, Inc., priority 2017, published 2020):
“Also recorded” adds a separate entry of the source.

Columns and labels:
Jeko-1 cells [1] = assay: Jeko-1 MCL tumor xenograft model, combination with Wee1 inhibitor; type: in vivo; settings: Compound 1 7.5 mg/kg, AZD-1775 15 mg/kg, or both
Description: A Jeko-1 mantle cell lymphoma (MCL) tumor xenograft model was used to study the combined effects of Chk1 inhibition with Compound 1 and a Wee1 inhibitor. Jeko-1 cells were inoculated subcutaneously into the flanks of CB17.SCID mice. Once tumors reached a volume of about 200 mm^3, mice were randomized into study groups (n=10 per group). […] A negative control group was included wherein the mice were treated with vehicle only.

Efflux ratio = type: in vitro ADME
Jeko-1 cells [2] = assay: Jeko-1 MCL xenograft model, single agent; settings: mouse, in vivo
Description: (§1) The effects of Compound 1 were assessed in two different mantle cell lymphoma (MCL) xenograft models. Jeko-1 and or Maver-1 cells were inoculated subcutaneously in the flanks of CB17.SCID (for Jeko-1 cells) or athymic nude (for Maver-1 cells) mice. Once the tumors reached a volume of about 200 mm^3, the mice were randomized into study groups (n=10 per group). Mice were treated with Compound 1 by oral gavage, or with only vehicle as a negative control. In one treatment group, Compound 1 was administered once per day for 21 days. In the other treatment group, Compound 1 was administered twice per day for three cycles, wherein each cycle constituted treatment for three consecutive days, followed by no treatment for four consecutive days.

[3] = GLP cardiovascular safety study; type: in vivo; settings: QTc interval, left ventricular pressure, contractility end points
Excerpt: 7-day repeat dose tolerability studies have been completed in mice, rats, and cynomolgus monkeys, and there have been no findings in a cynomolgus monkey GLP cardiovascular safety study (including corrected QT (QTc) interval, left ventricular pressure (LVP), and contractility end points). Compound 1 is active as a single agent, but is also active in combination with chemotherapeutic agents and Wee1 inhibitors.

Maver-1 cells = assay: Maver-1 MCL xenograft model, single agent; settings: mouse, in vivo
Description: as §1

NCI-H727 tumor cells = assay: NCI-H727 NSCLC tumor xenograft model, single agent; type: in vivo; settings: treated mice
Description: (§2) In order to assess the in vivo efficacy of Compound 1, two different NSCLC xenograft models were used. SK-MES-1 or NCI-H727 tumor cells were inoculated subcutaneously in the flanks of athymic nude mice. Once tumors reached a volume of about 200 mm^3, mice were randomized into study groups (n=10 per group). Mice were treated by oral gavage with Compound 1 at a dose of 12.5, 25, or 50 mg/kg once per day. A negative control group was also included, wherein the animals were administered vehicle only.

hERG = hERG (Homo sapiens, UniProt Q12809); assay: hERG inhibition
Chk1 [4] = target: T1, Chk1 (Homo sapiens, UniProt O14757); assay: Chk1 enzymatic assay; type: biochemical; settings: 10 μM [γ-33P]-ATP, 20 μM peptide substrate (SEQ ID NO:1); read-out: IC50, enzymatic potency against Chk1
T1 sequence (O14757 1-476): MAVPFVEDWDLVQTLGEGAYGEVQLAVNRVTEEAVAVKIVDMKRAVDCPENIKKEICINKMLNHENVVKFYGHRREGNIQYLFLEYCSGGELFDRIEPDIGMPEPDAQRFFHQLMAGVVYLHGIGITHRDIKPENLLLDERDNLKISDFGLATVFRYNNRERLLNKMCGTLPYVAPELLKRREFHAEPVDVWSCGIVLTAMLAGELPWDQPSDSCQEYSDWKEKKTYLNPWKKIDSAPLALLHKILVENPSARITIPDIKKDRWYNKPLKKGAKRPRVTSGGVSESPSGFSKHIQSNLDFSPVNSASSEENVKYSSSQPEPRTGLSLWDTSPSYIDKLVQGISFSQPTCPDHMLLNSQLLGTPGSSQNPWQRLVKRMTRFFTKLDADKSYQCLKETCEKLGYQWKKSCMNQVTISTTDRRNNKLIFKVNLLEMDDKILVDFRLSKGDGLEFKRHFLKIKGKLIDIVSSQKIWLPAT

CYP = CYP inhibition; type: in vitro ADME
Chk1 [5] = target: T1, Chk1; assay: Cellular Chk1 assay, serine 296 phospho-epitope immunoblot in HT-29 cells; type: cell-based; settings: HT-29 colon carcinoma cells, 18-hour assay, anti-Chk1 serine 296 phospho-epitope antibody
Description: Cellular Chk1 was assayed using HT-29 colon carcinoma cells in an 18-hour assay by immunoblotting with a rabbit anti-Chk1 serine 296 phosphor-epitope antibody (obtained from Cell Signaling Technology Inc.).

MV-411 cells = assay: MV-411 AML tumor xenograft model; type: in vivo; settings: single agent
Excerpt: An MV-411 tumor xenograft model was used to test the ability of Compound 1 to inhibit AML tumor growth in vivo. MV-411 cells were mixed with Matrigel in a 1:1 ratio and injected subcutaneously into the right flanks of female NOD.SCID mice. Once tumors reached a volume of about 100 to 200 mm^3, mice were randomized into study groups (n=10 per group) and dosed with Compound 1 by oral gavage.

Chk2 = Chk2 (Homo sapiens, UniProt O96017); assay: Kinase panel selectivity, IC50 relative to Chk1; type: biochemical
Description: Compound 1 was screened against a panel of 120 kinases, including those represented in FIG. 3A, using a 1 μM ATP concentration. The IC50 values, measured at the ATP Km for each kinase, are represented relative to Chk1 in FIG. 3B. Cellular IC50 values were derived from signal transduction assays in relevant cell lines using phosphor-epitope-specific antibodies.

SK-MES-1 tumor cells = assay: SK-MES-1 NSCLC tumor xenograft model; type: in vivo; settings: treated mice
Description: as §2

Metabolic stability = type: in vitro ADME
[6] = system: solid and hematological tumor-derived cell lines; assay: Large cell line panel proliferation screens (CellTiter-Glo); type: cell-based; settings: in vitro; lower end printed in nM, upper end in μM; read-out: IC50 values, single agent, large cell line panels
Description: A panel of 232 carcinoma derived cell lines was screened in a high-throughput proliferation assay using dilutions of Compound 1 or cisplatin. Cell lines were treated with serial half-log dilutions of Compound 1 or cisplatin using a starting concentration of 30 μM to achieve 9 dose levels and assayed 72 hours later for proliferation using a CellTiter-Glo® Assay (Promega). IC50 (EC50) values were calculated by fitting the dose-response data using a nonlinear regression model.
A panel of about 70 hematopoietic cell lines was screened for sensitivity to Compound 1 in a 72-hour proliferation assay (CrownBio Omnipanel). Cell lines that were screened included those representing anaplastic large cell lymphoma (ALCL), acute myeloid leukemia (AML), B-cell acute lymphoblastic leukemia (B-ALL), Burkitt lymphoma, chronic lymphocytic leukemia (CLL), chronic myelogenous leukemia (CML), mantle cell lymphoma (MCL), multiple myeloma (MM), acute promyelocytic leukemia (PML), and T-cell acute lymphoblastic leukemia (T-ALL).

Chain of hERG (Q12809 whole entry): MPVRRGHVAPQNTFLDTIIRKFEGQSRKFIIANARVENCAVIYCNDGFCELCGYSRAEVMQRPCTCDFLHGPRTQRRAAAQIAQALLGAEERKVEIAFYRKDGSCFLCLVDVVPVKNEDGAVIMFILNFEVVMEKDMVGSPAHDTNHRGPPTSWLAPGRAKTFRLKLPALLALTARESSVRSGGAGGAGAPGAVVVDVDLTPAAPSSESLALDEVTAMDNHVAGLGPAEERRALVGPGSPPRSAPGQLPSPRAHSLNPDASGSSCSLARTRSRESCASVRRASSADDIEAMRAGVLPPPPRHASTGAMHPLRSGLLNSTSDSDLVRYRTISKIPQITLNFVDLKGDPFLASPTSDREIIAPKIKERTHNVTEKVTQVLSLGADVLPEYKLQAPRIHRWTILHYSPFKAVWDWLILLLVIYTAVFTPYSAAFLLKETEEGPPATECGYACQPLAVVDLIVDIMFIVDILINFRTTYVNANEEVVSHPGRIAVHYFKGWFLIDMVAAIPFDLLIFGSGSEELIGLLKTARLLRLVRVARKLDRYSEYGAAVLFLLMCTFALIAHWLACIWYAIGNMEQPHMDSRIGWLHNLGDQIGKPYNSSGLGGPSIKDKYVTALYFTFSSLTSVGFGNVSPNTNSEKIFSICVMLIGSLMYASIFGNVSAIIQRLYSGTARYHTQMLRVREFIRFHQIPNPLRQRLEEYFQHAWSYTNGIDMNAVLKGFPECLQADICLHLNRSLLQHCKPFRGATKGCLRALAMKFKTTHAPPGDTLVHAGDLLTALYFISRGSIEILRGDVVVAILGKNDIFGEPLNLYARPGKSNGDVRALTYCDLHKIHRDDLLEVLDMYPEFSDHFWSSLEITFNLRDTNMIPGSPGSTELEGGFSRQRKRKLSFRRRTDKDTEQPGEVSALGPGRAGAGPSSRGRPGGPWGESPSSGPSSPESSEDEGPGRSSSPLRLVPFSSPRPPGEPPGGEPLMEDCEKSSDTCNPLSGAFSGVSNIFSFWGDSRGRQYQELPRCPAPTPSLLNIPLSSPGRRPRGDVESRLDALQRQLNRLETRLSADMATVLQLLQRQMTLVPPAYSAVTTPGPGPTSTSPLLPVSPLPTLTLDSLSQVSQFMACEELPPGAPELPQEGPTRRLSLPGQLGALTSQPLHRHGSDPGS
Chain of Chk2 (O96017 whole entry, species assumed): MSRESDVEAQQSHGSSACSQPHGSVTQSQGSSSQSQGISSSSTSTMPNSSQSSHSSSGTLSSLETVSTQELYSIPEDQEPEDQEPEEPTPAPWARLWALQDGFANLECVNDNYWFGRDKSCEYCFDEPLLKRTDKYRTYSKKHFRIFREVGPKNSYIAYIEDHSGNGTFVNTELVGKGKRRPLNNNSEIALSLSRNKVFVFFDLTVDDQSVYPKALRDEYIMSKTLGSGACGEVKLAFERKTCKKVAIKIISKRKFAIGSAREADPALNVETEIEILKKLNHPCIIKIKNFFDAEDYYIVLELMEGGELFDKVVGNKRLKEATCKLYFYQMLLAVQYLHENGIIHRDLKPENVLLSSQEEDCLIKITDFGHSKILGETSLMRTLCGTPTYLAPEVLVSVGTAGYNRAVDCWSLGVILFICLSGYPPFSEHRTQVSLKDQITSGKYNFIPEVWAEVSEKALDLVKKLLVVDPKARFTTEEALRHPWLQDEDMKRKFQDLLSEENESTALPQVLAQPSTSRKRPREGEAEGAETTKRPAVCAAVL

Row | SMILES | tumor growth (Jeko-1 cells [1]; oral gavage once per day, three cycles of 3 days on/4 days off) | efflux ratio (Efflux ratio) | tolerability (body weight) (Jeko-1 cells [2]) | cardiovascular safety findings [3] | tolerability (body weight) (Maver-1 cells) | tolerability (body weight) (Jeko-1 cells [1]) | effect on body weight (NCI-H727 tumor cells) | hERG inhibition index (hERG) | IC50 (Chk1 [4]) [nM] | CYP inhibition (CYP) | IC50 (Chk1 [5]) [nM] | tolerability (body weight) (MV-411 cells) | selectivity for Chk1 over Chk2 (Chk2) | effect on body weight (SK-MES-1 tumor cells) | metabolic stability (Metabolic stability) | IC50 [6] [nM]
1 | C=CCn1c(=O)c2cnc(Nc3ccc(N4CCN(C)CC4)cc3)nc2n1-c1cccc(C(C)(C)O)n1 [AZD-1775, 2-allyl-1-(6-(2-hydroxypropan-2-yl)pyridin-2-yl)-6-((4-(4-methylpiperazin-1-yl)phenyl)amino)-1H-pyrazolo[3,4-d]pyrimidin-3(2H)-one, reference compound] | inhibited by both agents alone |  |  |  |  |  |  |  |  |  |  |  |  |  |  | 
2 | COc1cc(C2(F)CCN(C)CC2)ccc1-c1cc(Nc2cnc(C#N)cn2)n[nH]1 [Compound 1, 5-((5-(4-(4-fluoro-1-methylpiperidin-4-yl)-2-methoxyphenyl)-1H-pyrazol-3-yl)amino)pyrazine-2-carbonitrile] |  | low | well-tolerated | low risk of cardiotoxicity; also recorded: no findings | well-tolerated | well-tolerated | minimal effects on body weight | excellent | 0.124 | no CYP inhibition liabilities | 0.511 | well-tolerated | more than 1,000 × | minimal effects on body weight | good | ≥ 30
